Experiments:
[1] = target: human TNIK (N-terminal segment, TNIK_N, residues 1-314) (Homo sapiens (Human), UniProt Q9UKE5); assay: TNIK kinase assay (mobility shift); type: biochemical; conditions: TNIK_N kinase activity, 25 μM ATP, 1 h at room temperature
In short: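 GST-tagged human TNIK residues 1-314 (Sf21 baculovirus) at 0.08 ng/μl phosphorylated 1 μM FITC-peptide with 25 μM ATP. Buffer: 20 mM Hepes pH 7.5, 5 mM MgCl2, 2 mM DTT, 1% DMSO; 1 h at room temperature, stopped with EDTA. Mobility-shift detection; activity = P/(P+S).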

[2] = system: human colon cancer cell line HCT-116; assay: In vitro cell proliferation assay; type: cell-based; conditions: HCT-116 cell number, 72 hours of treatment
Description: In Vitro Cell Proliferation Assay
The human colon cancer cell line HCT-116 was seeded at 600 cells/well in 96 well-plate (ThermoFisher) using RPMI medium containing 2 mM L-glutamine (Invitrogen) supplemented with 10% FCS (Invitrogen) and 1% penicillin/streptomycin (Sigma) and maintained at 37° C., 5% CO2 and 100% humidity. The following day, old medium was withdrawn and the fresh medium was added. Initial numbers of cells were counted before adding compounds. Then cells were treated in duplicates with compounds (a half-logarithmic serial dilution from 10 μM). Eight untreated control wells were incubated in each plate. After 72 hours of treatment, cells were fixed with 2% paraformaldehyde, and the nucleus were stained with Hoechst 33258 (Invitrogen). The numbers of cells were counted with ArrayScan™ VTI (ThermoFisher Scientific).

Chain of human TNIK (N-terminal segment, TNIK_N, residues 1-314) (Q9UKE5 1-314): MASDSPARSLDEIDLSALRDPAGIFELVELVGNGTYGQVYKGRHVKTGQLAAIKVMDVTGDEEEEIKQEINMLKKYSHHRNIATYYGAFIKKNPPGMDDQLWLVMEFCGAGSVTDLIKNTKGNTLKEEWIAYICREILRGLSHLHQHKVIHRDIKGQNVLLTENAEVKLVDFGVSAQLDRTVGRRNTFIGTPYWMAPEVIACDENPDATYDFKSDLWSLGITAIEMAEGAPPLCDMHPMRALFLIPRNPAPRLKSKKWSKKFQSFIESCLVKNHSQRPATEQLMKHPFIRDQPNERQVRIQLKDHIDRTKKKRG

IC50 [1] [nM] | IC50 [2] [nM] | SMILES
19.8 | < 100 | CC(=O)Nc1ccc(C(=O)Nc2sc(Nc3ccc4ccccc4c3)nc2C(N)=O)cc1 [Example 2, 5-(4-acetamidobenzamido)-2-(naphthalen-2-ylamino)thiazole-4-carboxamide]
10.6 | < 100 | NC(=O)c1nc(Nc2ccc3ccccc3c2)sc1NC(=O)c1ccc(NCCO)cc1 [Example 10, 5-[4-(2-hydroxyethylamino)benzamido]-2-(naphthalen-2-ylamino)thiazole-4-carboxamide]
8.6 | < 100 | CN(C)CCNc1ccc(C(=O)Nc2sc(Nc3ccc4ccccc4c3)nc2C(N)=O)cc1 [Example 11, 5-{4-[2-(dimethylamino)ethylamino]benzamido}-2-(naphthalen-2-ylamino)thiazole-4-carboxamide]
10.2 | 100 to 1000 | CN1CCN(c2ccc(C(=O)Nc3sc(Nc4ccc5ccccc5c4)nc3C(N)=O)cc2)CC1 [Example 12, 5-[4-(4-methylpiperazin-1-yl)benzamido]-2-(naphthalen-2-ylamino)thiazole-4-carboxamide]
8 | < 100 | NC(=O)c1nc(Nc2ccc3ccccc3c2)sc1NC(=O)c1ccc(NCCN2CCCCC2)cc1 [Example 13, 2-(naphthalen-2-ylamino)-5-{4-[2-(piperidin-1-yl)ethylamino]benzamido}thiazole-4-carboxamide]
20.3 | < 100 | NC(=O)c1nc(Nc2ccc3ccccc3c2)sc1NC(=O)c1ccc(N)cc1 [Example 16, 5-(4-aminobenzamido)-2-(naphthalen-2-ylamino) thiazole-4-carboxamide]
5.1 | < 100 | CN1CCN(Cc2ccc(C(=O)Nc3sc(Nc4ccc5ccccc5c4)nc3C(N)=O)cc2)CC1 [Example 17, 5-{4-[(4-methylpiperazin-1-yl)methyl]benzamido}-2-(naphthalen-2-ylamino)thiazole-4-carboxamide]
8.6 | < 100 | NC(=O)c1nc(Nc2ccc3ccccc3c2)sc1NC(=O)c1ccc(CN2CCOCC2)cc1 [Example 18, 5-[4-(morpholinomethyl)benzamido]-2-(naphthalen-2-ylamino)thiazole-4-carboxamide]
5.3 | 100 to 1000 | NCc1ccc(C(=O)Nc2sc(Nc3ccc4ccccc4c3)nc2C(N)=O)cc1 [Example 23, 5-(4-aminomethylbenzamido)-2-(naphthalen-2-yl-amino)thiazole-4-carboxamide]
4.1 | 1000 to 10000 | CN1CCN(c2ccc(C(=O)Nc3sc(Nc4ccc5ncccc5c4)nc3C(N)=O)cc2)CC1 [Example 24, 5-[4-(4-methylpiperazin-1-yl)benzamido]-2-(quinolin-6-ylamino)thiazole-4-carboxamide]
15.6 | 1000 to 10000 | CN1CCN(c2ccc(C(=O)Nc3sc(Nc4cccc5ncccc45)nc3C(N)=O)cc2)CC1 [Example 26, 5-[4-(4-methylpiperazin-1-yl)benzamido]-2-(quinolin-5-ylamino)thiazole-4-carboxamide]
19.1 | 1000 to 10000 | CN1CCN(c2ccc(C(=O)Nc3sc(Nc4cccc5cccnc45)nc3C(N)=O)cc2)CC1 [Example 27, 5-[4-(4-methylpiperazin-1-yl)benzamido]-2-(quinolin-8-ylamino)thiazole-4-carboxamide]
17 | 100 to 1000 | CN1CCN(c2ccc(C(=O)Nc3sc(N(C)c4ccc5ncccc5c4)nc3C(N)=O)cc2)CC1 [Example 28, 2-[methyl(quinolin-6-yl)amino]-5-[4-(4-methylpiperazin-1-yl]benzamido)thiazole-4-carboxamide]
22.7 | 100 to 1000 | NC(=O)c1nc(Nc2ccc3ccccc3c2)sc1NC(=O)c1cc2sccc2[nH]1 [Example 35, N-[4-carbamoyl-2-(naphthalen-2-ylamino)thiazol-5-yl]-4H-thieno[3,2-b]pyrrole-5-carboxamide]
12 | 100 to 1000 | NC(=O)c1nc(Nc2ccc3cnccc3c2)sc1NC(=O)c1ccsc1 [Example 46, 2-(isoquinolin-6-ylamino)-5-(thiophene-3-carbox-amido)thiazole-4-carboxamide]
36.3 | 1000 to 10000 | CN1CCN(c2ccc(C(=O)Nc3sc(N(C)c4ccc5ccccc5c4)nc3C(N)=O)cc2)CC1 [Example 65, 2-[methyl(naphthalen-2-yl)amino]-5-[4-(4-methyl-piperazin-1-yl)benzamido]thiazole-4-carboxamide]
12.7 | 1000 to 10000 | CC(C)=CC(=O)Nc1sc(Nc2ccc3ccccc3c2)nc1C(N)=O [Example 83, 5-(3-methylbut-2-enamido)-2-(naphthalen-2-yl-amino)thiazole-4-carboxamide]
 | 100 to 1000 | CN1CCN(CCCCCC(=O)Nc2sc(Nc3ccc4ccccc4c3)nc2C(N)=O)CC1 [Example 91, 5-[6-(4-methylpiperazin-1-yl)hexanamido]-2-(naphthalen-2-ylamino)thiazole-4-carboxamide]
12.7 | < 100 | NC(=O)c1nc(Nc2ccc3ccccc3c2)sc1NC(=O)c1ccc(N2CCC(O)CC2)cc1 [Example 97, 5-[4-(4-hydroxypiperidin-1-yl)benzamido]-2-(naphthalen-2-ylamino)thiazole-4-carboxamide]
2.5 | < 100 | NC(=O)c1nc(Nc2ccc3ccccc3c2)sc1NC(=O)c1ccc(Cn2cncn2)cc1 [Example 195, 5-{4-[(1H-1,2,4-triazol-1-yl)methyl]benzamido}-2-(naphthalen-2-ylamino)thiazole-4-carboxamide]
5.9 | < 100 | NC(=O)c1nc(Nc2ccc3ccccc3c2)sc1NC(=O)c1ccc(Cn2cnnn2)cc1 [Example 205, 5-(4-[(1H-tetrazol-1-yl)methyl)benzamido]-2-(naphthalen-2-ylamino)thiazole-4-carboxamide]
3 | < 100 | NC(=O)c1nc(Nc2ccc3ccccc3c2)sc1NC(=O)c1ccc(Cn2ccnc2)cc1 [Example 208, 5-{4-[(1H-imidazol-1-yl)methyl]benzamido}-2-(naphthalen-2-ylamino)thiazole-4-carboxamide]

From US9102637B2, “Bicyclic thiazole compounds” (CARNA BIOSCIENCES INC., priority 2013, dated 2015)
